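Five concentrations, 48 hours, 96-well plates. TGI is the concentration that stops growth completely.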
Columns and labels:
Assay in all cases: NCI tumour cell line growth inhibition, 48 h
NCI-H226 lung = test system: NCI-H226 lung
NCI/ADR-RES ovarian = test system: NCI/ADR-RES ovarian
HCT-116 colon = test system: HCT-116 colon
A498 renal = test system: A498 renal
SF-268 CNS = test system: SF-268 CNS
M14 melanoma = test system: M14 melanoma
SK-MEL-28 melanoma = test system: SK-MEL-28 melanoma
KM12 colon = test system: KM12 colon
SR leukemia = test system: SR leukemia
SN12C renal = test system: SN12C renal
COLO 205 colon = test system: COLO 205 colon
OVCAR-8 ovarian = test system: OVCAR-8 ovarian
UACC-257 melanoma = test system: UACC-257 melanoma
SK-MEL-5 melanoma = test system: SK-MEL-5 melanoma
MOLT-4 leukemia = test system: MOLT-4 leukemia
OVCAR-5 ovarian = test system: OVCAR-5 ovarian
CAKI-1 renal = test system: CAKI-1 renal
OVCAR-4 ovarian = test system: OVCAR-4 ovarian
SK-OV-3 ovarian = test system: SK-OV-3 ovarian
RPMI-8226 leukemia = test system: RPMI-8226 leukemia
K-562 leukemia = test system: K-562 leukemia
HL-60(TB) leukemia = test system: HL-60(TB) leukemia
HS 578T breast = test system: HS 578T breast
EKVX NSCLC = test system: EKVX NSCLC
ACHN renal = test system: ACHN renal
MDA-N = test system: MDA-N
HT29 colon = test system: HT29 colon
HOP-62 NSCLC = test system: HOP-62 NSCLC
NCI-H23 lung = test system: NCI-H23 lung
CCRF-CEM leukemia = test system: CCRF-CEM leukemia
HCT-15 colon = test system: HCT-15 colon
RXF 393 renal = test system: RXF 393 renal
PC-3 prostate = test system: PC-3 prostate
SNB-75 CNS = test system: SNB-75 CNS
UO-31 renal = test system: UO-31 renal
NCI-H522 lung = test system: NCI-H522 lung
SW-620 colon = test system: SW-620 colon
SK-MEL-2 melanoma = test system: SK-MEL-2 melanoma
A549 NSCLC = test system: A549 NSCLC
UACC-62 melanoma = test system: UACC-62 melanoma
DU-145 prostate = test system: DU-145 prostate
LOX IMVI melanoma = test system: LOX IMVI melanoma
BT-549 breast = test system: BT-549 breast
TK-10 renal = test system: TK-10 renal
MDA-MB-231 breast = test system: MDA-MB-231 breast
T-47D breast = test system: T-47D breast
SF-539 CNS = test system: SF-539 CNS
MALME-3M melanoma = test system: MALME-3M melanoma
SNB-19 CNS = test system: SNB-19 CNS
SF-295 CNS = test system: SF-295 CNS
MCF7 breast = test system: MCF7 breast
U251 CNS = test system: U251 CNS
OVCAR-3 ovarian = test system: OVCAR-3 ovarian
786-0 renal = test system: 786-0 renal
NCI-H460 lung = test system: NCI-H460 lung
IGROV1 ovarian = test system: IGROV1 ovarian
HOP-92 NSCLC = test system: HOP-92 NSCLC
HCC-2998 colon = test system: HCC-2998 colon

`Cc1c(S(=O)(=O)/N=C(\NN)Nc2ccc(Cl)cc2)sc2ccc(Cl)cc12` showed a TGI (NCI-H226 lung) of 41.6 µM, a TGI (NCI/ADR-RES ovarian) of 40.8 µM and a TGI (HCT-116 colon) of 26.4 µM. The TGI (A498 renal) was 29.5 µM, the TGI (SF-268 CNS) was 33.8 µM and the TGI (M14 melanoma) was 34.8 µM. It also gave a TGI (SK-MEL-28 melanoma) of 44.1 µM, a TGI (KM12 colon) of 30 µM and a TGI (SR leukemia) of 65.1 µM. It also gave a TGI (SN12C renal) of 30.9 µM, a TGI (COLO 205 colon) of 33.4 µM and a TGI (OVCAR-8 ovarian) of 34.7 µM. The TGI (UACC-257 melanoma) was 33.8 µM, the TGI (SK-MEL-5 melanoma) was 33.4 µM and the TGI (MOLT-4 leukemia) was 59.8 µM. For the same compound, the TGI (OVCAR-5 ovarian) was 27.9 µM, the TGI (CAKI-1 renal) was 34.4 µM and the TGI (OVCAR-4 ovarian) was 30.1 µM. For the same compound, the TGI (SK-OV-3 ovarian) was 35.9 µM, the TGI (RPMI-8226 leukemia) was greater than 100 µM and the TGI (K-562 leukemia) was greater than 100 µM. For the same compound, the TGI (HL-60(TB) leukemia) was 90.8 µM, the TGI (HS 578T breast) was 59.1 µM and the TGI (EKVX NSCLC) was 27.2 µM. The TGI (ACHN renal) was 30 µM, the TGI (MDA-N) was 29.1 µM and the TGI (HT29 colon) was 30.7 µM. For the same compound, the TGI (HOP-62 NSCLC) was 36.3 µM, the TGI (NCI-H23 lung) was 35.6 µM and the TGI (CCRF-CEM leukemia) was greater than 100 µM. The TGI (HCT-15 colon) was 34.4 µM, the TGI (RXF 393 renal) was 23.6 µM and the TGI (PC-3 prostate) was 29 µM. It also gave a TGI (SNB-75 CNS) of 28.4 µM, a TGI (UO-31 renal) of 33.1 µM and a TGI (NCI-H522 lung) of 32.5 µM. It also gave a TGI (SW-620 colon) of 71.2 µM, a TGI (SK-MEL-2 melanoma) of 30.5 µM and a TGI (A549 NSCLC) of 31.6 µM. For the same compound, the TGI (UACC-62 melanoma) was 27.6 µM, the TGI (DU-145 prostate) was 30.9 µM and the TGI (LOX IMVI melanoma) was 35.1 µM. It also gave a TGI (BT-549 breast) of 30.9 µM, a TGI (TK-10 renal) of 31.8 µM and a TGI (MDA-MB-231 breast) of 32 µM. The TGI (T-47D breast) was 24 µM, the TGI (SF-539 CNS) was 31.5 µM and the TGI (MALME-3M melanoma) was 39.1 µM. The TGI (SNB-19 CNS) was 38 µM, the TGI (SF-295 CNS) was 33.6 µM and the TGI (MCF7 breast) was 30.2 µM. The TGI (U251 CNS) was 30.4 µM, the TGI (OVCAR-3 ovarian) was 32 µM and the TGI (786-0 renal) was 31.5 µM. For the same compound, the TGI (NCI-H460 lung) was 34.8 µM, the TGI (IGROV1 ovarian) was 30.4 µM and the TGI (HOP-92 NSCLC) was 31.4 µM.

In the case of `CC1=NCC[N+]1(CCc1ccccc1)Cc1ccccc1` (stereo unspecified), the TGI (NCI-H226 lung) is reported as greater than 100 µM, the TGI (NCI/ADR-RES ovarian) is reported as greater than 100 µM and the TGI (HCT-116 colon) is reported as greater than 100 µM. The TGI (A498 renal) was greater than 100 µM, the TGI (SF-268 CNS) was greater than 100 µM and the TGI (M14 melanoma) was greater than 100 µM. For the same compound, the TGI (SK-MEL-28 melanoma) was greater than 100 µM, the TGI (KM12 colon) was greater than 100 µM and the TGI (SR leukemia) was greater than 100 µM. It also gave a TGI (SN12C renal) greater than 100 µM, a TGI (COLO 205 colon) of 21.5 µM and a TGI (OVCAR-8 ovarian) greater than 100 µM. For the same compound, the TGI (UACC-257 melanoma) was 91.7 µM, the TGI (SK-MEL-5 melanoma) was greater than 100 µM and the TGI (OVCAR-5 ovarian) was greater than 100 µM. The TGI (OVCAR-4 ovarian) was greater than 100 µM, the TGI (SK-OV-3 ovarian) was greater than 100 µM and the TGI (RPMI-8226 leukemia) was 69.8 µM. It also gave a TGI (K-562 leukemia) of 31 µM, a TGI (HL-60(TB) leukemia) of 68.7 µM and a TGI (HS 578T breast) greater than 100 µM. It also gave a TGI (EKVX NSCLC) greater than 100 µM, a TGI (ACHN renal) greater than 100 µM and a TGI (MDA-N) greater than 100 µM. For the same compound, the TGI (HT29 colon) was greater than 100 µM, the TGI (HOP-62 NSCLC) was greater than 100 µM and the TGI (NCI-H23 lung) was greater than 100 µM. For the same compound, the TGI (CCRF-CEM leukemia) was greater than 100 µM, the TGI (HCT-15 colon) was greater than 100 µM and the TGI (RXF 393 renal) was greater than 100 µM. For the same compound, the TGI (SNB-75 CNS) was greater than 100 µM, the TGI (UO-31 renal) was greater than 100 µM and the TGI (NCI-H522 lung) was 72.3 µM. For the same compound, the TGI (SW-620 colon) was greater than 100 µM, the TGI (SK-MEL-2 melanoma) was greater than 100 µM and the TGI (A549 NSCLC) was greater than 100 µM. The TGI (UACC-62 melanoma) was greater than 100 µM, the TGI (DU-145 prostate) was greater than 100 µM and the TGI (LOX IMVI melanoma) was greater than 100 µM. It also gave a TGI (BT-549 breast) greater than 100 µM, a TGI (TK-10 renal) greater than 100 µM and a TGI (MDA-MB-231 breast) greater than 100 µM. It also gave a TGI (T-47D breast) greater than 100 µM, a TGI (MALME-3M melanoma) greater than 100 µM and a TGI (SNB-19 CNS) greater than 100 µM. For the same compound, the TGI (SF-295 CNS) was greater than 100 µM, the TGI (MCF7 breast) was greater than 100 µM and the TGI (HCC-2998 colon) was greater than 100 µM. It also gave a TGI (U251 CNS) greater than 100 µM, a TGI (OVCAR-3 ovarian) of 91 µM and a TGI (786-0 renal) greater than 100 µM. It also gave a TGI (NCI-H460 lung) greater than 100 µM, a TGI (IGROV1 ovarian) greater than 100 µM and a TGI (HOP-92 NSCLC) of 49.8 µM.

From PubChem BioAssay (NCI)
